According to paper PMC6691788, “Design and synthesis of phthalazine-based compounds as potent anticancer agents with potential antiangiogenic activity via VEGFR-2 inhibition” (Journal of Enzyme Inhibition and Medicinal Chemistry, 2019):

Columns and labels:
SK-MEL-28 = test: NCI 60 cell panel SRB screen; assay type: cell-based; settings: Homo sapiens; for GI50: SK-MEL-28; for IC (TGI): SK-MEL-28, read-out: TGI; for activity at 10 µM: SK-MEL-28, read-out: percent cell growth promotion; for CC50: SK-MEL-28, 5 log dose, 48 h, read-out: LC50 (the source's name)
HL-60(TB) = test: NCI 60 cell panel SRB screen; assay type: cell-based; settings: Homo sapiens; for GI50 / IC (TGI) / CC50: 5 log dose; for CC50: 48 h, read-out: LC50 (the source's name); for activity at 10 µM: single dose 10 μM, read-out: percent cell growth promotion
SW-620 = test: NCI 60 cell panel SRB screen; assay type: cell-based; settings: Homo sapiens; for GI50 / IC (TGI) / CC50: SW-620, 5 log dose; for CC50: 48 h, read-out: LC50 (the source's name); for activity at 10 µM: SW-620, single dose 10 μM, read-out: percent cell growth promotion
NCI/ADR-RES = test: NCI 60 cell panel SRB screen; assay type: cell-based; settings: Homo sapiens; for GI50 / IC (TGI) / CC50: 5 log dose; for CC50: 48 h, read-out: LC50 (the source's name); for activity at 10 µM: single dose 10 μM, read-out: percent cell growth promotion
full NCI 60 cell panel = test: NCI 60 cell panel SRB screen, whole panel; assay type: cell-based, human; settings: Homo sapiens, 60 cell, NCI 5-log dose, full 60 cell panel; read-out: GI50 values, range over the tested cell lines
NCI-H522 = test: NCI 60 cell panel SRB screen; assay type: cell-based; settings: Homo sapiens; for GI50 / IC (TGI) / CC50: NCI-H522, 5 log dose; for CC50: 48 h, read-out: LC50 (the source's name); for activity at 10 µM: NCI-H522, single dose 10 μM, read-out: percent cell growth promotion
IGROV1 = test: NCI 60 cell panel SRB screen; assay type: cell-based; settings: Homo sapiens, IGROV-1; for GI50 / IC (TGI) / CC50: IGROV1, 5 log dose; for CC50: 48 h, read-out: LC50 (the source's name); for activity at 10 µM: IGROV1, single dose 10 μM, read-out: percent cell growth promotion
NCI-H460 = test: NCI 60 cell panel SRB screen; assay type: cell-based; settings: Homo sapiens; for GI50 / IC (TGI) / LC50 (concentration causing 50% cell kill): NCI-H460, 5 log dose; for LC50 (concentration causing 50% cell kill): 48 h; for activity at 10 µM: NCI-H460, single dose 10 μM, read-out: percent cell growth promotion
786-0 = test: NCI 60 cell panel SRB screen; assay type: cell-based; settings: Homo sapiens; for GI50 / IC (TGI) / CC50: 786-0, 5 log dose; for CC50: 48 h, read-out: LC50 (the source's name); for activity at 10 µM: 786-0, single dose 10 μM, read-out: percent cell growth promotion
UO-31 = test: NCI 60 cell panel SRB screen; assay type: cell-based; settings: Homo sapiens; for GI50 / IC (TGI) / CC50: UO-31, 5 log dose; for CC50: 48 h, read-out: LC50 (the source's name); for activity at 10 µM: UO-31, single dose 10 μM, read-out: percent cell growth promotion
COLO 205 = test: NCI 60 cell panel SRB screen; assay type: cell-based; settings: Homo sapiens; for GI50 / IC (TGI) / CC50: COLO 205, 5 log dose; for CC50: 48 h, read-out: LC50 (the source's name); for activity at 10 µM: COLO 205, single dose 10 μM, read-out: percent cell growth promotion
EKVX = test: NCI 60 cell panel SRB screen; assay type: cell-based, human; settings: for GI50 / IC (TGI) / LC50: Homo sapiens, 5 log dose; for LC50: 48 h
OVCAR-8 = test: NCI 60 cell panel SRB screen; assay type: cell-based; settings: Homo sapiens; for GI50 / IC (TGI) / CC50: OVCAR-8, 5 log dose; for CC50: 48 h, read-out: LC50 (the source's name); for activity at 10 µM: OVCAR-8, single dose 10 μM, read-out: percent cell growth promotion
OVCAR-4 = test: NCI 60 cell panel SRB screen; assay type: cell-based; settings: Homo sapiens; for GI50 / IC (TGI) / CC50: OVCAR-4, 5 log dose; for CC50: 48 h, read-out: LC50 (the source's name); for activity at 10 µM: OVCAR-4, single dose 10 μM, read-out: percent cell growth promotion
A498 = test: NCI 60 cell panel SRB screen; assay type: cell-based; settings: Homo sapiens; for GI50 / IC (TGI) / CC50: A498, 5 log dose; for CC50: 48 h, read-out: LC50 (the source's name); for activity at 10 µM: A498, single dose 10 μM, read-out: percent cell growth promotion
MDA-MB-435 = test: NCI 60 cell panel SRB screen; assay type: cell-based; settings: Homo sapiens; for GI50: MDA-MB-435; for IC (TGI): MDA-MB-435, read-out: TGI; for activity at 10 µM: MDA-MB-435, read-out: percent cell growth promotion; for CC50: MDA-MB-435, 5 log dose, 48 h, read-out: LC50 (the source's name)
NCI-H23 = test: NCI 60 cell panel SRB screen; assay type: cell-based; settings: Homo sapiens; for GI50 / IC (TGI) / CC50: NCI-H23, 5 log dose; for CC50: 48 h, read-out: LC50 (the source's name); for activity at 10 µM: NCI-H23, single dose 10 μM, read-out: percent cell growth promotion
SF-539 = test: NCI 60 cell panel SRB screen; assay type: cell-based, human; settings: for GI50 / IC (TGI) / CC50: Homo sapiens, SF-539, 5 log dose; for CC50: 48 h, read-out: LC50 (the source's name)
SK-MEL-2 = test: NCI 60 cell panel SRB screen; assay type: cell-based; settings: for GI50 / IC (TGI) / CC50: Homo sapiens; for IC (TGI): read-out: TGI; for CC50: SK-MEL-2, 5 log dose, 48 h, read-out: LC50 (the source's name)
RXF 393 = test: NCI 60 cell panel SRB screen; assay type: cell-based; settings: Homo sapiens; for GI50 / IC (TGI) / CC50: RXF 393, 5 log dose; for CC50: 48 h, read-out: LC50 (the source's name); for activity at 10 µM: RXF 393, single dose 10 μM, read-out: percent cell growth promotion

## Cc1nnc(Nc2ccc(NC(=O)Nc3ccc(Cl)cc3)cc2)c2ccccc12 [Compound 6e, 1–(4-Chlorophenyl)-3–(4-(4-methylphthalazin-1-ylamino)phenyl)urea]
SK-MEL-28
  GI50: 1.63 µM
  IC (TGI): 3.2 µM
  activity at 10 µM: -11.9%
  CC50: 6.29 µM
HL-60(TB)
  GI50: 2.03 µM
  IC (TGI): 4.18 µM
  CC50: 8.64 µM
  activity at 10 µM: -34.8%
SW-620
  GI50: 2.15 µM
  IC (TGI): 4.76 µM
  CC50: 11.9 µM
  activity at 10 µM: 20.3%
NCI/ADR-RES
  GI50: 3.63 µM
  IC (TGI): 14.9 µM
  CC50: > 100 µM
  activity at 10 µM: 45.1%
Full NCI 60 cell panel
  GI50: 0.15 to 8.41 µM
NCI-H522
  GI50: 1.84 µM
  IC (TGI): 3.88 µM
  CC50: 8.21 µM
  activity at 10 µM: 30.3%
IGROV1
  GI50: 3.98 µM
  IC (TGI): 19.5 µM
  CC50: > 100 µM
  activity at 10 µM: 62%
NCI-H460
  GI50: 3.46 µM
  IC (TGI): 11.7 µM
  LC50 (concentration causing 50% cell kill): 39.1 µM
  activity at 10 µM: 26.1%
786-0
  GI50: 1.71 µM
  IC (TGI): 3.34 µM
  CC50: 6.55 µM
  activity at 10 µM: -27.9%
UO-31
  GI50: 2.14 µM
  IC (TGI): 6.01 µM
  CC50: 31.8 µM
  activity at 10 µM: 51.2%
COLO 205
  GI50: 2.22 µM
  IC (TGI): 5.29 µM
  CC50: 19.2 µM
  activity at 10 µM: 28.2%
EKVX
  GI50: 3.47 µM
  IC (TGI): 17.9 µM
  LC50: 87.8 µM
OVCAR-8
  GI50: 3.35 µM
  IC (TGI): 9.32 µM
  CC50: 47.4 µM
  activity at 10 µM: 31.4%
OVCAR-4
  GI50: 2.79 µM
  IC (TGI): 8.36 µM
  CC50: 58.2 µM
  activity at 10 µM: 42.6%
A498
  GI50: 3.21 µM
  IC (TGI): 10.5 µM
  CC50: 38.5 µM
  activity at 10 µM: 35.4%
MDA-MB-435
  GI50: 1.73 µM
  IC (TGI): 3.43 µM
  activity at 10 µM: -40%
  CC50: 6.81 µM
NCI-H23
  GI50: 2.38 µM
  IC (TGI): 6.31 µM
  CC50: 40.9 µM
  activity at 10 µM: 48.8%
SF-539
  GI50: 1.61 µM
  IC (TGI): 3.32 µM
  CC50: 6.83 µM
SK-MEL-2
  GI50: 2.22 µM
  IC (TGI): 4.59 µM
  CC50: 9.5 µM
RXF 393
  GI50: 2.17 µM
  IC (TGI): 4.13 µM
  CC50: 7.84 µM
  activity at 10 µM: -39.7%

## O=C(Nc1ccccc1)Nc1ccc(Oc2nnc(Cl)c3ccccc23)cc1 [Compound 13a, 1–(4-(4-Chlorophthalazin-1-yloxy)phenyl)-3-phenylurea]
SK-MEL-28
  GI50: 3.57 µM
  IC (TGI): 12.7 µM
  activity at 10 µM: 44.2%
  CC50: > 25 µM
HL-60(TB)
  GI50: 2.7 µM
  IC (TGI): > 25 µM
  CC50: > 25 µM
  activity at 10 µM: 12.1%
SW-620
  GI50: 8.41 µM
  IC (TGI): > 25 µM
  CC50: > 25 µM
  activity at 10 µM: 73.4%
NCI/ADR-RES
  GI50: 2.63 µM
  IC (TGI): 6.39 µM
  CC50: 15.5 µM
  activity at 10 µM: 16.9%
Full NCI 60 cell panel
  GI50: 0.15 to 8.41 µM
NCI-H522
  GI50: 2.8 µM
  IC (TGI): 9.68 µM
  CC50: > 25 µM
  activity at 10 µM: 2%
IGROV1
  GI50: 3.32 µM
  IC (TGI): 7.92 µM
  CC50: 18.9 µM
  activity at 10 µM: 37.2%
NCI-H460
  GI50: 2.67 µM
  IC (TGI): 8.65 µM
  LC50 (concentration causing 50% cell kill): > 25 µM
  activity at 10 µM: 25.2%
786-0
  GI50: 3.6 µM
  IC (TGI): 8.18 µM
  CC50: 18.6 µM
  activity at 10 µM: 38.2%
UO-31
  GI50: 3.98 µM
  IC (TGI): 19.6 µM
  CC50: > 25 µM
  activity at 10 µM: 34.9%
COLO 205
  GI50: 5.24 µM
  IC (TGI): > 25 µM
  CC50: > 25 µM
  activity at 10 µM: 35.1%
EKVX
  GI50: 2.31 µM
  IC (TGI): 12.1 µM
  LC50: > 25 µM
EKVX; single dose 10 μM
  percent cell growth promotion: 29.96%
OVCAR-8
  GI50: 2.6 µM
  IC (TGI): 6.53 µM
  CC50: 16.4 µM
  activity at 10 µM: 15.5%
OVCAR-4
  GI50: 1.73 µM
  IC (TGI): 12.2 µM
  CC50: > 25 µM
  activity at 10 µM: 0.22%
A498
  GI50: 3.45 µM
  IC (TGI): 13.1 µM
  CC50: > 25 µM
  activity at 10 µM: 49.2%
MDA-MB-435
  GI50: 7.54 µM
  IC (TGI): > 25 µM
  activity at 10 µM: 48.6%
  CC50: > 25 µM
NCI-H23
  GI50: 3.72 µM
  IC (TGI): 9.44 µM
  CC50: 24 µM
  activity at 10 µM: 32.7%
SF-539
  GI50: 2.81 µM
  IC (TGI): 6.4 µM
  CC50: 14.6 µM
SF-539; SF-539, single dose 10 μM
  percent cell growth promotion: -22.02%
SK-MEL-2
  GI50: 3.9 µM
  IC (TGI): 13.2 µM
  CC50: > 25 µM
SK-MEL-2; SK-MEL-2, single dose 10 μM
  percent cell growth promotion: 9.53%
RXF 393
  GI50: 2.69 µM
  IC (TGI): 6.24 µM
  CC50: 14.5 µM
  activity at 10 µM: -3.63%
